Assay [1] has as its system rat model of closed head injury. Kind of assay: Closed head injury (head trauma) in rats: cerebral edema and Neurological Severity Score. In kind it is in vivo. From the text: Severe head injury is associated with high mortality and severe neurological impairment. Animals subjected to head trauma in a controlled fashion serve as models in which to test drugs of therapeutic potential. Test compounds can be evaluated both for improved clinical outcome and for reduction of edema induced by closed head injury. The ability of compounds to reduce the severity of neurological symptoms and to reduce brain edema is considered a measure of their potency in reducing brain damage.
The cerebroprotective effect of PRS-211 compounds was assessed in a model of head trauma (HT) in rats. […] The clinical status of the rats was evaluated 1, 24 and 48 hours after injury along with measuring the extent of cerebral edema. The neurological deficit, assessed by a set of criteria termed the Neurological Severity Score (NSS), is maximal at 1 hour after the initiation of head trauma. […]
The model was described in detail by Shapira et al., Crit. […] During the recovery period, the clinical status was evaluated by a set of criteria (NSS).
Trauma induced a significant decrease in specific gravity (SG) of brain tissue and increase in water content following head injury. […] Tissue pieces (20 mg each) were placed on top of the column and the SG calculated from the equilibrium position in the column, using a standard curve. […]

Another assay has as its system transient MCAo in rats. Kind of assay: Transient middle cerebral artery occlusion (MCAo), infarct size evaluation. In kind it is in vivo. From the text: The middle cerebral artery is the cerebral blood vessel most susceptible to stroke in humans. In animals, coagulation, permanent ligation or permanent placement of an occluding thread ink the artery produces a permanent focal stroke affecting the MCA territory. Transient ligation or occlusion results in transient focal stroke. Both transient and permanent focal strokes result in varying degrees of edema and infarction in the affected brain regions. The ability of compounds to reduce the volumes of edema and infarction is considered a measure of their potential as anti-stroke treatment.
• a. Male rats (8/treatment group) 320–380 gr. (Harlan Israel). • b. Halothane (Rhone Poulenc France) • c. Pentobarbitone (Pental Veterinary, CTS Israel). • d. Poly-L-Lysine (Sigma, USA). • e. Silk suture material 3-0 and 4-0. • f. Nylon (Polyamid) suture material 3-0. Four cm pieces were cut and positioned in a solution of 1% Poly-L-Lysine for 1 minute and dried in an oven (60 ° C.) for 60 minutes. The tip of each piece was rounded under a flame. • g. Saline (Teva Medical). • h. Blank cremophor ethanol cosolvent (Pharmos). • i. Dexanabinol in cremophor ethanol cosolvent 50 mg/ml. (Both Dexanabinol and its vehicle were diluted in saline prior to drug administration. • j. Analogs PRS-211,092, PRS-211,095, PRS-211,128 PRS-211,132 and PRS-211,220 in cremophor ethanol cosolvent, 50 mg/ml. • k. The analogs were diluted in saline prior to drug administration. Methods Transient MCAo
a. Surgical details of the MCAO method used for testing dexanabinol analogs, are presented in Belayev, et al., (Belayev, Busto, Weizhao, and Ginsberg, Stroke 26:2313–2319, 1995) which is incorporated herein in its entirety by reference.
b. Two hours after the start of MCAo, the animals were reanesthetized with halothane, the neck wound was re-opened and the nylon thread pulled out of the Internal carotid artery (ICA). The skin wound was then closed with 3-0 silk suture material and the animals allowed to recover from the anesthesia.
c. Three sets of animals were tested. In the first test immediately (2+0 hours) before thread removal the animals were injected IV with either analogs PRS 211,095, PRS 211,128, PRS 211,132, or Dexanabinol (PRS 211,007) each at a dosage of 5 mg/kg. One group of animals was treated with 5mi/kg vehicle alone. In another group, the animals subjected to “sham” operation, the suture was passed into the ICA, as described above, but immediately withdrawn. […] Laser Doppler Flow (LDF) determined the success of MCAo—a drop of more then 50% in cerebral blood flow was considered as a sign of successful MCAO. […]
A detailed investigation of neurological performance was carried out on the first, third and the 7th day after the MCAo. […] Animals were scored according to their performance: […]

The next assay has as its system AMPA binding. Description: AMPA binding to rat forebrain membranes.

Each structure is given as a SMILES string.

In the case of `CCCCCCC(C)(C)c1cc(O)c2c(c1)OC(C)(C)C1CC=C(Cn3ccnc3)CC21.Cl` (single isomer, unassigned; (+)) [211,095-000, (+)-(3S ,4S )-6,6-Dimethyl-(1,1-dimethylheptyl)-1-hydroxy-9-(imidazolomethyl)-6a,7,10,10a-tetrahydro-6H-dibenzo[b,d]pyran], the “edema formation and BBB disruption” value in assay [1] (given 30 min before, immediately after, or 1 and 2 hours after HT) was “significantly reduces edema formation and BBB disruption”. The “edema and clinical outcome 24 hours after HT” value in assay [1] (one dose of 5 mg/kg given 1 hour after the impact) was “effectively reduced edema and improved the clinical outcome”. Also, the Behavioral/neurological outcome in the assay with transient MCAo in rats (posture and flexion reflex, days 1, 3, 7 after MCAo) was “fewer neurological deficits and recovered faster”. Also, in the assay on transient MCAo in rats (transient MCAo, 5 mg/kg IV at 2+0 hours), the Mortality rate result is listed as “No mortality”. Besides, the “reduction of infarct size” value in the assay with transient MCAo in rats (transient MCAo, one week after the ischemic insult) came out at 60%.

In the case of `CCCCCCC(C)(C)c1cc(O)c2c(c1)OC(C)(C)[C@H]1CC=C(CO)CC21` (stereo partly drawn) [211,007-000, 1,1 dimethyl heptyl-(3S,4S)-7-hydroxy-Δ^6-tetrahydrocannabinol], the “inhibition of AMPA binding” value in the assay with AMPA binding is on record as “unable to inhibit”.

The values above are taken from patent publication US7235584B2, “Non-psychotropic cannabinoids” (Pharmos Corporation, priority 2000, dated 2007).
